Data as given in patent publication US20260315486A1, “ALECTINIB FOR THE TREATMENT OF ALK FUSION-POSITIVE SOLID OR CNS TUMOURS” (Hoffmann-La Roche Inc., priority 2023, published 2026).

Key:
[1] = stated as known; may result in bradycardia; cited from earlier work
[2] = tested on: ALK fusion-positive solid or CNS tumours; assay: Paediatric clinical trial, Part 1 safety run-in: investigator-reported tumour response (RANO / RECIST v1.1 / INRC); type: in vivo, human (paediatric patients)
Description: The study consists of three parts, all enrolling paediatric participants with solid or CNS tumours with known ALK fusion for whom prior treatment has proven to be ineffective or for whom there is no satisfactory treatment available: • Part 1, dose confirmation and safety run-in: to identify the RP2D for paediatric participants, achieving the exposure observed in the adult population • This portion will consist of a safety run-in with a minimum of 6 participants (up to approximately 18 participants) to assess the safety, tolerability, and pharmacokinetics of alectinib in the paediatric population. The initial paediatric dose will be assessed and refined by modelling and simulation prospectively. • Part 2, initial expansion: to evaluate the safety and preliminary efficacy of alectinib in newly enrolled paediatric participants treated at the paediatric RP2D. A minimum of 10 participants will be enrolled in this part of the study. If 4 or more participants achieve an objective response to alectinib (as described in Part 2, below), additional expansion will be performed. • Part 3, additional expansion: This portion of the study will enroll approximately 14 additional paediatric participants. An integrated efficacy analysis accounting for every participant treated at paediatric RP2D across all cohorts will be used for the confirmation of the efficacy of alectinib.
(§1) Alectinib will be administered orally or via feeding tube to participants BID on Days 1-28 of each 28-day cycle. All participants will be closely monitored for adverse events (regardless of relationship to study drug) throughout the study and for at least 28 days after the final dose of study treatment or until initiation of a new anti-cancer therapy, whichever occurs first.
Response will be assessed by the investigator on the basis of physical examinations, computed tomography (CT) scans, and other modalities where relevant (e.g., magnetic resonance imaging [MRI] scans, brain scans, bone marrow examinations, fluorodeoxyglucose-positron emission tomography (FDG-PET), metaiodobenzoguanidine [MIBG] scan), according to RANO, INRC, and RECIST v1.1 (see below). Tumour assessment imaging should include all areas of known disease.
An objective response should be confirmed by repeat assessments ≥4 weeks after initial documentation. The same radiographic procedure used to assess disease sites at screening should be used throughout the study (e.g., the same contrast protocol for CT scans). To the extent that is feasible, assessments should be performed by the same evaluator to ensure internal consistency across visits.
Selected sections from the Response Evaluation Criteria in Solid Tumors (RECIST), Version 1.1 (Eisenhauer et al., 2009, Eur J Cancer, 45:228-47) are presented below, with slight modifications.
Antitumor activity will be assessed based on clinical and radiographic evidence as described by the INRC (Park et al. 2017, Clin Oncol; 35:2580-7).
Antitumor activity will be assessed based on clinical and radiographic evidence as described by the RANO criteria.
The primary efficacy endpoint is ORR in participants treated at the paediatric RP2D, as assessed by BICR, defined as the proportion of participants with an objective response. The objective response for individual participants will be assessed per RECIST v1.1 for participants with extracranial tumours, and per RANO for participants with primary CNS tumours, and INRC for neuroblastoma. An objective response is defined as a CR or PR per disease-specific response criteria, confirmed ≥4 weeks apart in two separate tumour assessments. Participants not meeting these criteria (including participants without a postbaseline tumour assessment) will be considered non-responders.
Patients with ALK fusion-positive solid or CNS tumours for whom prior treatment has proven to be ineffective or for whom there is no satisfactory treatment available, less than 18 years of age, were eligible. […]

[3] = Paediatric clinical trial, Part 1 safety run-in: safety and tolerability (dose-limiting toxicities, adverse events); type: in vivo, human (paediatric patients)
Description: as §1
Owing to the limitations of predicting exposure in children who are <2 years old, before enrolment of participants <2 years old, the investigator must discuss a participant's case with the Medical Monitor until at least 3 participants who are ≥2-6 years old have completed one cycle of treatment. The first participant enrolled must complete at least 8 days of treatment without a DLT before subsequent participants can enroll. If a dose adjustment is required because of toxicity, the same approach will be taken for the first participant at the new dose level. Participants will be closely monitored for adverse events during a DLT assessment window of one cycle (28 days). Participants who discontinue from the study prior to completing the DLT assessment window or who complete <80% (i.e., […]) of the prescribed therapy for that cycle for reasons other than a DLT will be considered non-evaluable. DLT non-evaluable participants will be replaced, unless the Medical Monitor determines that replacement is not necessary for a dose adjustment decision. The Medical Monitor will review all participants who take prohibited therapies, foods, or supplements or who receive supportive care during the DLT assessment window that would confound the evaluation of DLTs (not including supportive care described below as part of the DLT definition) to determine DLT evaluability and whether such participants will be replaced.
During the safety run-in phase, any one of the following events will be considered a DLT if it occurs during the DLT assessment window and is assessed by the investigator to be related or possibly related to alectinib (rules for attributing causality are defined below in ‘Adverse events’). Adverse events identified as DLTs, as defined below, must be reported to the Sponsor within 24 hours.
The following will be considered as a DLT: • Any treatment-related death • Grade 4 neutropenia (ANC<500 cells/mm^3 which is equivalent to ANC<0.5×10^9/L) lasting at least 7 days • Febrile neutropenia: ANC<1000 cells/mm^3 (which is equivalent to ANC<1×10^9/L) with a single temperature of >38.3° C. (101° F.) or a sustained temperature of ≥38° C. (100.4° F.) for more than 1 hour • Grade 4 anaemia • Grade 4 thrombocytopenia (i.e., platelet count <25.0×10^9/L) or Grade 3 thrombocytopenia associated with clinically significant bleeding or any thrombocytopenia requiring platelet transfusion. • Of note, the post-surgical platelet threshold for platelets transfusion could be higher. […]

[4] = tested on: FGFR2; details: stated without data; cited from earlier work
[5] = Peters et al., 2017; cited from earlier work
[6] = 7 patients evaluable for efficacy (ALCL patient excluded), investigator, data cut off Jun. 12, 2023
[7] = 7 patients evaluable for efficacy, investigator
[8] = 8 patients, Part 1 safety run-in

Q: What does the source list for `CCc1cc2c(cc1N1CCC(N3CCOCC3)CC1)C(C)(C)c1[nH]c3cc(C#N)ccc3c1C2=O` [Alectinib, 9-ethyl-6,6-dimethyl-8-(4-morpholin-4-yl-piperidin-1-yl)-11-oxo-6,11-dihydro-5H-benzo[b]carbazole-3-carbonitrile]?
A: Negative chronotropic effect [1]: known negative chronotropic effect of alectinib that may result in bradycardia; Best Overall Response: responders (CR + PR), number of patients [2, 6]: 4 patients; Best Overall Response: responders (CR + PR), percent of patients [2, 6]: 57.1%; Best Overall Response: CR, number of patients [2, 7]: 1 CR; Best Overall Response: PR, number of patients [2, 7]: 3 PR; Best Overall Response: Stable Disease, number of patients [2, 7]: 2 patients; Best Overall Response: Stable Disease, percent of patients [2, 7]: 28.6%; Best Overall Response (Investigator): Complete Response (CR), number of patients ([2]; N = 8, all enrolled patients): 1; Best Overall Response (Investigator): Partial Response (PR), number of patients ([2]; N = 8, all enrolled patients): 4; Best Overall Response (Investigator): Progressive Disease (PD), number of patients ([2]; N = 8, all enrolled patients): 0; Best Overall Response (Investigator): Stable Disease (SD), number of patients ([2]; N = 8, all enrolled patients): 2; Best Overall Response (Investigator): Total Responders, number of patients ([2]; N = 8, all enrolled patients): 5; Best Overall Response (Investigator, %): Complete Response (CR) ([2]; N = 8, all enrolled patients): 12.5%; Best Overall Response (Investigator, %): Partial Response (PR) ([2]; N = 8, all enrolled patients): 50.0%; Best Overall Response (Investigator, %): Progressive Disease (PD) ([2]; N = 8, all enrolled patients): 0.0%; Best Overall Response (Investigator, %): Total Responders ([2]; N = 8, all enrolled patients): 62.5%; Response, in words ([2]; conclusion, paediatric patients with ALK-fusion positive solid or CNS tumours): majority of patients experiencing a response; AE-related deaths [3, 8]: no AE-related deaths; Dose Limiting Toxicities [3, 8]: No Dose Limiting Toxicities were reported; New safety signals [3, 8]: no new safety signals detected; Patients with Grade ≥3 related AE [3, 8]: 2 patients; Patients with a related Adverse Event (AE) [3, 8]: Seven; Tolerability ([3]; paediatric patients with ALK-fusion positive solid or CNS tumours): generally well tolerated; Inhibitory activity on FGFR2 [4]: no inhibitory activity; CNS penetration [5]: CNS penetrant
